# Test results reported in the supplement of paper PMC10307832.
# Experiments:
# Experiment in all cases: relative viability (nuclei count vs DMSO), 5 days (fraction); higher = more cells survive
# [1] = compound: NS(=O)(=O)OC[C@@H]1C[C@@H](n2ccc3c(N[C@H]4CCc5ccccc54)ncnc32)C[C@@H]1O [MLN4924] + Cc1cc(Nc2cc(N3CCN(C)CC3)nc(Sc3ccc(NC(=O)C4CC4)cc3)n2)n[nH]1 [Tozasertib] (partner 0.1 µM)
# Method in brief: (§1)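 Cells from lung cancer lines were seeded into 1536-well plates and, one day later, dosed by pin tool. Treatments were either a single drug or a fixed dose of an anchor drug with five library-drug doses (not always all listed) in √10 steps. After 5 days, nuclei were stained in a one-step fixation (final 0.05% Triton X-100, 1% formaldehyde, 1 ug/ml Hoechst) and counted on 4× images, and relative viability is the treated-to-vehicle nuclei ratio, as the median of duplicate plates.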
# [2] = compound: CC[C@H](C)N1C=C(C2=C(C=C(C=C21)C3=CN=C(C=C3)N4CCNCC4)C(=O)NCC5=C(C=C(NC5=O)C)C)C [GSK126] + C[C@@H](Oc1cc(-c2cnn(C3CCNCC3)c2)cnc1N)c1c(Cl)ccc(F)c1Cl [Crizotinib] (partner 1 µM)
# Method in brief: as §1
# [3] = compound: CC[C@H](C)N1C=C(C2=C(C=C(C=C21)C3=CN=C(C=C3)N4CCNCC4)C(=O)NCC5=C(C=C(NC5=O)C)C)C [GSK126] + N=C(N)NC(=N)NCCc1ccccc1 [Phenformin] (partner 250 µM)
# Method in brief: as §1
# [4] = compound: C1CC(C1)(C(=O)O)C(=O)O.[NH2-].[NH2-].[Pt+2] [Carboplatin] + N=C(N)NC(=N)NCCc1ccccc1 [Phenformin] (partner 250 µM)
# Method in brief: as §1
Cell Line,relative viability ([1]; first compound 0.04 µM),relative viability ([1]; first compound 0.1265 µM),relative viability ([1]; first compound 0.4 µM),relative viability ([1]; first compound 1.265 µM),relative viability ([1]; first compound 4 µM),relative viability ([2]; first compound 0.08 µM),relative viability ([2]; first compound 0.253 µM),relative viability ([2]; first compound 0.8 µM),relative viability ([2]; first compound 2.53 µM),relative viability ([2]; first compound 8 µM),relative viability ([3]; first compound 0.08 µM),relative viability ([3]; first compound 0.253 µM),relative viability ([3]; first compound 0.8 µM),relative viability ([3]; first compound 2.53 µM),relative viability ([3]; first compound 8 µM),relative viability ([4]; first compound 0.08 µM),relative viability ([4]; first compound 0.253 µM),relative viability ([4]; first compound 0.8 µM),relative viability ([4]; first compound 2.53 µM),relative viability ([4]; first compound 8 µM)
NCI-H1437,0.298,0.254,0.176,0.195,0.133,0.99,0.914,0.879,0.797,0.794,0.298,0.362,0.269,0.319,0.311,0.29,0.303,0.294,0.301,0.299
EMC-BAC-2,0.254,0.254,0.208,0.212,0.239,0.772,0.765,0.718,0.723,0.701,0.606,0.528,0.505,0.483,0.482,0.559,0.581,0.52,0.521,0.461
NCI-H520,0.461,0.513,0.425,0.204,0.25,0.885,0.62,0.644,0.747,0.642,0.572,0.542,0.561,0.574,0.497,0.677,0.595,0.725,0.585,0.54
NCI-H1993,0.489,0.478,0.51,0.449,0.498,0.912,0.768,0.924,0.865,0.941,0.501,0.546,0.501,0.522,0.554,0.542,0.498,0.467,0.477,0.499
HCC-827,0.415,0.347,0.408,0.165,0.167,0.938,0.895,0.934,1.02,0.869,0.408,0.385,0.441,0.388,0.411,0.444,0.394,0.428,0.366,0.365
NCI-H2087,0.189,0.257,0.244,0.0576,0.0697,0.861,0.985,0.888,0.821,0.867,0.457,0.39,0.448,0.449,0.487,0.493,0.48,0.383,0.424,0.332
HARA,0.101,0.0797,0.0797,0.0484,0.065,1.13,0.986,1.01,1.12,0.817,0.607,0.434,0.476,0.367,0.38,0.466,0.518,0.372,0.426,0.425
NCI-H2126,0.821,0.813,0.514,0.339,0.25,1.07,1.04,1.05,0.992,0.987,0.512,0.534,0.554,0.535,0.507,0.591,0.525,0.537,0.503,0.492
LCLC-103H,0.493,0.533,0.364,0.168,0.137,1.07,1.18,1.01,1.01,1,0.331,0.383,0.377,0.344,0.39,0.325,0.357,0.347,0.32,0.348
SK-LU-1,0.356,0.295,0.171,0.0898,0.111,1.01,0.935,0.949,1.13,1.06,0.674,0.521,0.553,0.582,0.603,0.78,0.578,0.44,0.533,0.41
EKVX,0.408,0.457,0.299,0.155,0.127,0.899,0.921,0.895,0.978,1.09,0.229,0.252,0.246,0.218,0.231,0.248,0.214,–,0.227,0.22
HCC-366,0.151,0.173,0.159,0.0404,0.0333,0.652,0.548,0.549,0.475,0.431,0.687,0.641,0.574,0.644,0.543,0.619,0.637,0.662,0.575,0.467
NCI-H1650,0.319,0.299,0.341,0.203,0.164,0.886,1.03,0.917,0.826,0.888,0.531,0.404,0.44,0.361,0.358,0.457,0.5,0.359,0.406,0.349
COR-L23,0.207,0.205,0.181,0.122,0.0744,0.663,0.559,0.659,0.611,0.713,0.504,0.445,0.437,0.435,0.404,0.453,0.394,0.428,0.353,0.241
NCI-H647,0.281,0.181,0.149,0.0334,0.0369,1.17,1.04,0.96,1.18,0.986,0.595,0.45,0.448,0.344,0.508,0.555,0.66,0.422,0.55,0.452
LXF-289,0.194,0.162,0.155,0.083,0.0804,0.821,0.786,0.799,0.739,0.8,0.549,0.509,0.477,0.487,0.483,0.566,0.584,0.519,0.539,0.502
